PubChem BioAssay AID1996
Converted amounts (≈) assume the structure as drawn.

Details: buffer; pH 7.4; 200.0 µM
For `COc1cc2ccccc2cc1C(=O)N1CCN(c2ccccn2)CC1`, the solubility kinetic was > 52.1 µg/mL.
Work on `COc1ccc(-c2cc(C#N)nc(Cl)n2)cc1` yielded a solubility kinetic of 1.3 µg/mL (≈ 5.29 µM).
`Fc1ccc(N2CCN(Cc3cnc(Cl)s3)CC2)cc1` showed a solubility kinetic of 45.9 µg/mL (≈ 147 µM).
For `CSc1nc(-c2ccccc2)cc(C)c1C#N`, the solubility kinetic was < 0.3 µg/mL.
With `S=C(c1c[nH]c2ccccc12)N1CCOCC1` the solubility kinetic was > 36.9 µg/mL.
With `CCCn1c2ccccc2c2cnn(CC(=O)NCCOC)c(=O)c21` the solubility kinetic was > 51.4 µg/mL.
Compound `CC(NC(=O)CCNC(=O)c1ccc(C(C)(C)C)cc1)c1ccccc1` (stereo not drawn) has a solubility kinetic of 17.1 µg/mL (≈ 48.5 µM).
`Cc1ccc(C)c(NC(=O)CCc2ccc(C)o2)c1` gave a solubility kinetic of 24.6 µg/mL (≈ 95.6 µM).
For `O=C(COc1cc(F)ccc1[N+](=O)[O-])NCC1CCCO1` (stereo not drawn), the solubility kinetic was > 44.7 µg/mL.
Compound `O=S(=O)(NCCn1cccc1)c1ccc2ccccc2c1` has a solubility kinetic of 2.1 µg/mL (≈ 6.99 µM).
`CCCCCC1CC(CC(=O)NC(=S)Nc2ccccc2Cl)C(=O)O1` (stereo not drawn) showed a solubility kinetic of 1.4 µg/mL (≈ 3.66 µM).
`CC1=CC(C)(C)NC(=S)N1c1ccc(C)cc1C` gave a solubility kinetic of 2.1 µg/mL (≈ 8.06 µM).
In the case of `O=C(CCCc1nc(-c2ccccc2Cl)no1)N1CCOCC1`, the solubility kinetic was > 50.4 µg/mL.
Work on `O=C(Nc1cccc2c1CCCC2)c1ccccc1F` yielded a solubility kinetic of 2.5 µg/mL (≈ 9.28 µM).
`COC(=O)c1sc(NC(=O)c2ccco2)c(C#N)c1C` gave a solubility kinetic of 3.7 µg/mL (≈ 12.7 µM).
With `COc1cc2c(cc1OC)-c1cc(Nc3ccc(C)cc3)nc(=O)n1CC2` the solubility kinetic was 1.9 µg/mL (≈ 5.23 µM).
Work on `CCOC(=O)C(CC)Sc1cc(C)nc2ccc(OC)cc12` (stereo not drawn) yielded a solubility kinetic of 34.8 µg/mL (≈ 109 µM).
Compound `COc1ccc(CC(=O)NCc2csc(-c3cccs3)n2)cc1OC` has a solubility kinetic of 54.6 µg/mL (≈ 146 µM).
Work on `N#C/C(=C\c1c[nH]c2ccc(Br)cc12)c1ccccn1` yielded a solubility kinetic of 0.8 µg/mL (≈ 2.47 µM).
`COc1ccccc1COC(=O)N/C=C/c1ccco1` showed a solubility kinetic of 18.3 µg/mL (≈ 67 µM).
In the case of `CC(C)(C)NCc1ccc(OCc2cccs2)cc1.Cl`, the solubility kinetic was 36.8 µg/mL.
With `O=S(=O)(c1cccc2nonc12)N1CCCCC1` the solubility kinetic was > 40.1 µg/mL.
For `CC(C)(C)C(O)CN1CCCC1.Cl` (stereo not drawn), the solubility kinetic was > 31.2 µg/mL.
In the case of `CC(c1ccccc1)N1C(=O)c2cccnc2C1=O` (stereo not drawn), the solubility kinetic was 32.6 µg/mL (≈ 129 µM).
`COc1ccccc1CNc1ncnc2cc(OC)c(OC)cc12` showed a solubility kinetic of 13 µg/mL (≈ 40 µM).
In the case of `CCCC(=O)N1CC(=O)Nc2ccc(C)cc2C1c1ccccc1` (stereo not drawn), the solubility kinetic was > 48.4 µg/mL.
With `CCOc1ccccc1NC(=O)CCNC(=O)c1ccco1` the solubility kinetic was 42.6 µg/mL (≈ 141 µM).
Compound `CCCCCCCCNc1nc(Cl)nc(NCCN2CCOCC2)n1` has a solubility kinetic of 0.5 µg/mL (≈ 1.35 µM).
Work on `N#Cc1c(-c2ccc(Cl)cc2)c2c([nH]c1=O)-c1ccccc1OC2` yielded a solubility kinetic of 7.6 µg/mL (≈ 22.7 µM).
With `CC(=O)Nc1cccc(NC(=O)c2cccc3cccnc23)c1` the solubility kinetic was 19.2 µg/mL (≈ 62.9 µM).
`COc1cccc(/C=C/c2ccc3cccc(O)c3n2)c1` showed a solubility kinetic of 0.7 µg/mL (≈ 2.52 µM).
With `O=C(C1CC(=O)N(c2ccc(F)cc2)C1)N1CCCCC1` (stereo not drawn) the solubility kinetic was 39 µg/mL (≈ 134 µM).
For `CCc1ccc(CCC(=O)Nc2ccc(Cl)cc2)o1`, the solubility kinetic was 8.1 µg/mL (≈ 29.2 µM).
In the case of `Cc1ccccc1-c1nnc(CS(=O)(=O)c2ccccc2)o1`, the solubility kinetic was > 47.2 µg/mL.
With `Cc1[nH]c2ccccc2c1C(=O)C(=O)N1CCC2(CC1)OCCO2` the solubility kinetic was > 49.3 µg/mL.
With `O=C(CCCCN1CCCCC1)c1ccccc1` the solubility kinetic was 31.8 µg/mL (≈ 130 µM).
Work on `Cc1ccc(-c2csc(NC(=O)c3ccc([N+](=O)[O-])o3)n2)cc1` yielded a solubility kinetic of 1.2 µg/mL (≈ 3.64 µM).
For `COc1ccc(OC)c(C(=O)/C=C/c2cccnc2)c1`, the solubility kinetic was > 40.4 µg/mL.
For `Cc1cccc(OCC(=O)NCc2ccc(F)cc2)c1`, the solubility kinetic was 23.4 µg/mL (≈ 85.6 µM).
`CCN1c2ccccc2N(C)C1(C)c1ccccc1` (stereo not drawn) showed a solubility kinetic of 21.5 µg/mL (≈ 85.2 µM).
With `COc1ccccc1NS(=O)(=O)c1cn(C)cn1` the solubility kinetic was > 40.1 µg/mL.
`c1ccc2c(-c3cncc4ccccc34)cncc2c1` gave a solubility kinetic of 32.1 µg/mL (≈ 125 µM).
For `O=C(NC(=S)Nc1cccnc1)c1cccc(Br)c1`, the solubility kinetic was 8.1 µg/mL (≈ 24.1 µM).
With `COC(=O)[C@@H](NC(=O)N1CCC(Cc2ccccc2)CC1)C(C)C` the solubility kinetic was > 49.9 µg/mL.
With `Cc1ccc(NS(=O)(=O)c2c(F)cc(F)c(Cl)c2F)cc1S(=O)(=O)N1CCOCC1` the solubility kinetic was > 72.7 µg/mL.
With `O=C(COC(=O)c1ccc[n+]([O-])c1)Nc1ccc([N+](=O)[O-])cc1C(F)(F)F` the solubility kinetic was > 57.8 µg/mL.
With `Cc1cc(NC(=O)COC(=O)CNS(=O)(=O)c2c(F)cc(F)cc2Br)no1` the solubility kinetic was > 70.2 µg/mL.
In the case of `CCCC(=O)N1CCCC(c2nc(-c3cccc(OC)c3)no2)C1` (stereo not drawn), the solubility kinetic was > 49.4 µg/mL.
